Results published in patent publication US10221163B2 (priority 2015, dated 2019).
Read-outs that look alike come from different tables or passages of the source.

Key:
IMP-1 = IMP-1 (Serratia marcescens, UniProt P52699); assay: biochemical; assay type: biochemical; settings: fluorescence assay, CCF2-FA substrate, 2 pM enzyme, 2 hours at 25° C.; read-out: IMP-1 IC50
Method in brief: (§1)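 Class B activity is measured in the presence of compound by fluorescence with CCF2-FA after a 2-hour incubation at 25° C. IC50 is taken from a 4-parameter fit of semi-logarithmic dose-response data.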

NDM-1 = NDM-1 (Klebsiella pneumoniae, UniProt C7C422); assay: biochemical; assay type: biochemical; settings: fluorescence assay, CCF2-FA substrate, 1 pM enzyme, 2 hours at 25° C.; read-out: NDM-1 IC50
Method in brief: as §1

VIM-1 = VIM-1 (Pseudomonas aeruginosa (strain ATCC 15692 / DSM 22644 / CIP 104116 / JCM 14847 / LMG 12228 / 1C / PRS 101 / PAO1), UniProt A0A0F7KYQ8); assay: biochemical; settings: CCF2-FA substrate, 30 pM enzyme, 2 hours at 25° C.
Method in brief: as §1

[1] = test system: Escherichia coli expressing NDM-1 (CLB30005, CLB30016); assay type: cell-based; settings: with imipenem 1 μg/ml; for Escherichia coli expressing NDM-1 (CLB30016) MITC95: 95% inhibition of bacterial growth; for Escherichia coli MITC95: NDM-1 strain, 95% inhibition of growth
Method in brief: (§2)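 Clinical isolates (E. coli NDM-1, S. marcescens IMP-1, K. pneumoniae VIM-1) were diluted 1:100 from saline suspension into 1.1×CAMHB and exposed to test compound with imipenem at 1 μg/ml. Plates were incubated at 35° C for 22 hours to 24 hours, and growth was read by absorbance.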

[2] = test system: Klebsiella pneumoniae expressing VIM-1 (IHMA599644); assay type: cell-based; settings: for Klebsiella pneumoniae expressing VIM-1 (IHMA599644) MITC95: with imipenem 1 μg/ml, 95% inhibition of bacterial growth; for Klebsiella pneumoniae MITC95: VIM-1 strain IHMA599644, with imipenem 1 μg/ml, 95% inhibition of growth
Method in brief: as §2

[3] = test system: Serratia marcescens expressing IMP-1 (CL5741); assay type: cell-based; settings: for Serratia marcescens expressing IMP-1 (CL5741) MITC95: with imipenem 1 μg/ml, 95% inhibition of bacterial growth; for Serratia marcescens MITC95: IMP-1 strain CL5741, with imipenem 1 μg/ml, 95% inhibition of growth
Method in brief: as §2

[4] = test system: Pseudomonas aeruginosa efflux+ (MB9798), IMP-1; assay type: cell-based; set-up: Concentration of metallo-β-lactamase inhibitor which restores susceptibility of efflux + (MB9798) strain to imipenem: unit not given here; settings: C, D serine β-lactamase inhibitor closely related to relebactam; for P. aeruginosa expressing IMP-1, efflux + (MB9798) MITC95: concentration restoring susceptibility to imipenem at 2 μg/mL in the presence of a class A; for Concentration of metallo-β-lactamase inhibitor which restores susceptibility of efflux + (MB9798) strain to imipenem: imipenem at 2 μg/mL, in the presence of a class A
Method in brief: (§3)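 Microbroth MIC tests in PAO1-background strains with fixed imipenem and/or ceftazidime, usually at the CLSI breakpoint, plus fixed class A/C β-lactamase inhibitor against AmpC. MBL inhibitor titrated; concentration restoring susceptibility recorded and compared as fold difference between efflux+ MB9798 and efflux− MB9799.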

[5] = test system: Pseudomonas aeruginosa efflux− (MB9799), IMP-1; assay type: cell-based; settings: C, D serine β-lactamase inhibitor closely related to relebactam; for P. aeruginosa expressing IMP-1, efflux − (MB9799) MITC95: concentration restoring susceptibility to imipenem at 2 μg/mL in the presence of a class A; for Concentration of metallo-β-lactamase inhibitor which restores susceptibility of efflux − (MB9799) strain to imipenem: imipenem at 2 μg/mL, in the presence of a class A
Method in brief: as §3

[6] = test system: Pseudomonas aeruginosa MB9798 vs MB9799
Method in brief: as §3

[7] = fluorescence assay, read-out: VIM-1 IC50
[8] = ratio MITC95 PA_9798/MITC95 PA_9799
[9] = fold difference between efflux+ (MB9798) and efflux− (MB9799) strains, imipenem at 2 μg/mL

Sequence of NDM-1 (C7C422 whole entry, looked up, species assumed): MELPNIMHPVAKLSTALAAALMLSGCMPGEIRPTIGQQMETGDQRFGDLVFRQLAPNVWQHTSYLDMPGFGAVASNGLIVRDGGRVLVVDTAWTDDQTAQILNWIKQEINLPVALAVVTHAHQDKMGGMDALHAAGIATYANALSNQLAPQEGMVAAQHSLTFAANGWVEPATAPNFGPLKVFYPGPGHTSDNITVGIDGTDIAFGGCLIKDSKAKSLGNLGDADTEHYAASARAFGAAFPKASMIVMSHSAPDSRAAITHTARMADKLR
Sequence of IMP-1 (P52699 whole entry, looked up, species assumed): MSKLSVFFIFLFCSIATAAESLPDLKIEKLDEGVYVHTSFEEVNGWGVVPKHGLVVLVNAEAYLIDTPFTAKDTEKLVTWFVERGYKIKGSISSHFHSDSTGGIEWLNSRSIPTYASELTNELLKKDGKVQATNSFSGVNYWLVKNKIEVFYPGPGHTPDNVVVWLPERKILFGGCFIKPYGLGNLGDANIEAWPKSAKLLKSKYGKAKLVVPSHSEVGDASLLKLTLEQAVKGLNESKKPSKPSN

Compound | IC50 (IMP-1) [nM] | IC50 (NDM-1) [nM] | IC50 (VIM-1; [7]) [nM] | Escherichia coli expressing NDM-1 (CLB30016) MITC95 [1] [µM] | Klebsiella pneumoniae expressing VIM-1 (IHMA599644) MITC95 [2] [µM] | Serratia marcescens expressing IMP-1 (CL5741) MITC95 [3] [µM] | P. aeruginosa expressing IMP-1, efflux + (MB9798) MITC95 [4] [µM] | P. aeruginosa expressing IMP-1, efflux − (MB9799) MITC95 [5] [µM] | Efflux ratio [6, 8] | Escherichia coli MITC95 [1] [µM] | Klebsiella pneumoniae MITC95 [2] [µM] | Serratia marcescens MITC95 [3] [µM] | Concentration of metallo-β-lactamase inhibitor which restores susceptibility of efflux + (MB9798) strain to imipenem [4] | Concentration of metallo-β-lactamase inhibitor which restores susceptibility of efflux − (MB9799) strain to imipenem [5] | Efflux ratio [6, 9] | IC50 (VIM-1; VIM-1 IC50, fluorescence assay) [nM]
Nc1nc2c(-c3ccc(S(=O)(=O)N[C@H]4CNC[C@@H]4F)c(S(N)(=O)=O)c3-c3nnn[nH]3)cccc2s1 [Example 59, 4-(2-amino-1,3-benzothiazol-4-yl)-N1-[(3S,4S)-4-fluoropyrrolidin-3-yl]-3-(1H-tetrazol-5-yl)benzene-1,2-disulfonamide] | 0.558 | 0.0357 | 0.309 | 1.563 | 3.125 | 1.563 | 1.563 | 1.563 | 1.00 |  |  |  |  |  |  | 
Nc1nc2c(-c3ccc(S(=O)(=O)NC4CC5CNC4C5)c(S(N)(=O)=O)c3-c3nnn[nH]3)cccc2s1 (stereo not drawn) [Example 88, 4-(2-aminobenzo[d]thiazol-4-yl)-N^1-(2-azabicyclo[2.2.1]heptan-6-yl)-3-(1H-tetrazol-5-yl)benzene-1,2-disulfonamide] | 0.172 | 0.0203 | 0.165 | 3.125 | 6.25 | 3.125 | 1.563 | 3.125 | 0.50 |  |  |  |  |  |  | 
Nc1nc2c(-c3ccc(S(=O)(=O)N4CCC(N)(CO)C4)c(S(N)(=O)=O)c3-c3nnn[nH]3)cccc2s1 (stereo not drawn) [Example 55, 3-(2-amino-1,3-benzothiazol-4-yl)-6-{[3-amino-3-(hydroxymethyl)pyrrolidin-1-yl]sulfonyl}-2-(1H-tetrazol-5-yl)benzenesulfonamide] | 0.86 | 0.51 | 1.46 | 3.125 | 6.25 | 3.125 | 3.125 | 3.125 | 1.00 |  |  |  |  |  |  | 
NCC(CN)NS(=O)(=O)c1ccc(-c2ccnc(N)c2)c(-c2nn[nH]n2)c1S(N)(=O)=O [Example 405] | 17.9 | 7.69 | 5.94 |  |  |  |  |  |  | 3.125 | 25 | 6.25 | 25 | 12.5 | 2.00 | 
NCCNCCNS(=O)(=O)c1ccc(-c2ccc(N)nc2)c(-c2nn[nH]n2)c1S(N)(=O)=O [Example 482, N1-(2-(-2-amineoethylamino)ethyl)-4-(6-aminopyridin-3-yl)-3-(2H-tetrazol-5-yl)benzene-1,2-disulfonamide] | 1.14 | 0.537 |  |  |  |  |  |  |  | 0.1953 | 1.563 | 0.7813 | 1.563 | 0.7813 | 2.00 | 0.333
NCCNS(=O)(=O)c1ccc(-c2cccc(SC[C@@H](O)CN)c2)c(-c2nn[nH]n2)c1S(N)(=O)=O [Example 357, (S)-5′-(3-amino-2-hydroxypropylthio)-N4-(2-aminoethyl)-2-(2H-tetrazol-5-yl)biphenyl-3,4-disulfonamide] | 1.21 | 1.26 |  |  |  |  | 0.7813 | 0.3906 | 2.00 | 0.7813 | 0.7813 | 0.7813 |  |  |  | 0.224
NCC(CN)NS(=O)(=O)c1ccc(-c2cccc3sc(N)nc23)c(-c2nn[nH]n2)c1S(N)(=O)=O [Example 436] | 0.103 | 0.0246 | 0.116 |  |  |  |  |  |  | 0.7813 | 1.563 | 1.563 | 0.7813 | 0.7813 | 1.00 | 
C[C@@H](N)CNS(=O)(=O)c1ccc(-c2cccc3[nH]c(N)nc23)c(-c2nn[nH]n2)c1S(N)(=O)=O [Example 185, 4-(2-amino-1H-benzo[d]imidazol-4-yl)-N1-((R)-2-aminopropyl)-3-(2H-tetrazol-5-yl)benzene-1,2-disulfonamide] | 0.524 | 0.0476 | 0.19 | 0.2135 | 1.025 | 0.7688 | 0.3844 | 0.5906 | 0.65 |  |  |  |  |  |  | 
Nc1ccc(-c2ccc(S(=O)(=O)NC[C@]3(N)CCNC3)c(S(N)(=O)=O)c2-c2nn[nH]n2)cn1 [Example 368, (S)-4-(6-aminopyridin-3-yl)-N1-((3-aminopyrrolidin-3-yl)methyl)-3-(2H -tetrazol-5-yl)benzene-1,2-disulfonamide] | 0.304 | 0.203 |  |  |  |  | 1.563 | 1.563 | 1.00 | 0.7813 | 3.125 | 0.7813 |  |  |  | 0.253
Nc1nc2c(-c3ccc(S(=O)(=O)N[C@H]4CO[C@H]5[C@@H]4OC[C@H]5N)c(S(N)(=O)=O)c3-c3nnn[nH]3)cccc2s1.O=C(O)C(F)(F)F [Example 103, (3R,3aR,6S,6aR)-6-(4-(2-aminobenzo[d]thiazol-4-yl)-2-sulfamoyl-3-(1H-tetrazol-5-yl)phenylsulfonamido)hexahydrofuro[3,2-b]furan-3-aminium 2,2,2-trifluoroacetate] | 0.226 | 0.0293 |  | 3.125 | 3.125 | 3.125 | 3.125 | 1.563 | 2.00 |  |  |  |  |  |  | 0.196
